Reference: US9879278B2, “Non-viral episomal suicide construct” (WAKE FOREST UNIVERSITY HEALTH SCIENCES, priority 2012, dated 2018)
“And” between values parts separate entries of the source, which are not always exact repeats. Equal values may be shown once. “Also recorded” adds a separate entry of the source.

Tests used:
[1] = system: NCCIT (pSuicide) cells; assay: OCT4 immunofluorescence of RA-differentiated cells with ganciclovir; assay type: cell-based, human
Description: (§1) One aliquot of cells was maintained in differentiation medium containing 2 μmol/L ganciclovir for 7 days (for in vitro immuno-analysis) or 14 days (for in vivo tumor formation). As a negative control, counterpart cells were grown in differentiation medium containing 0.1% DMSO in which ganciclovir is dissolved.
Briefly, differentiated NCCIT cells growing on chamber slides were fixed in 4% PFA for 15 min at room temperature and permeabilized in 0.2% Triton X-100/PBS for 10 min. After blocking with 10% horse serum, cells were incubated with 3%0/horse serum diluted (1:50) OCT4 antibody (Santa Cruz Biotechnology) for 1 h at room temperature, followed by three washes in PBS-T (0.1% Tween 20 in phosphate-buffered saline). […] Images were captured under a fluorescent microscope.

[2] = system: NCCIT (pSuicide) cells; assay: Flow cytometry of OCT4-expressing cells after RA and ganciclovir; assay type: cell-based, human
Description: as §1
(§2) Cells were trypsinized and about 5×10^5 cells were fixed in 2% paraformaldehyde for 10 min at room temperature. Cells were pelleted and permeabilized by resuspension with vigorous vortexing in 500 μl iced-cold methanol and incubated at 4° C. for at least 10 min. After 3 washes with staining buffer (PBS with 1% BSA), the cells were resuspended in 100 μl OCT4 antibody (Santa Cruz Biotechnology), diluted to 1:100 with staining buffer, and incubated for 30 min at 4° C. The cells were washed 3 times with staining buffer and incubated in 1:300 diluted Cy5-conjugated goat anti-mouse Fab for 30 min at 4° C. The cells were assessed for OCT4 expression using a BD FACSCalibur cytometer (BD Biosciences) with CellQuest software.

[3] = system: NCCIT cells; assay: as above; assay type: cell-based, human
Description: as §1, §2

[4] = system: RA-differentiated NCCIT(pSuicide) cells; assay: Tumor development from RA-differentiated NCCIT(pSuicide) cells with or without in vitro ganciclovir selection; assay type: in vivo, SCID mice
Description: as §1
Trypsinized cells washed in PBS were resuspended in ice-cold PBS containing 30% BD Matrigel (BD Biosciences), drawn into an ice-cold 1-mL syringe, and kept on ice for subcutaneous injection into 8-˜12-week-old female immunodeficient SCID mice (Charles River Laboratories, Wilmington, Mass.) as previously described (Prokhorova et al., 2009, Stem Cells Dev 2009; 18:47-54). For undifferentiated NCCIT and NCCIT (pSuicide) cells, 1.5×10^6 cells in 100 μl volume were injected for each mouse. For differentiated NCCIT (pSuicide) cells, 3×10^6 cells were injected.
(§3) When tumors reached about 8 mm in size, ganciclovir (50 mg/kg body weight) was delivered intraperitoneally daily for 2-3 weeks. Each tumor was regarded as a prolate spheroid and the greatest longitudinal diameter (L) and greatest transverse diameter (B) were monitored with a caliper every 2 days by the same person. The two dimensions were to lie perpendicular to each other in a plane tangential to the body wall. Tumor size was estimated from the formula V=½(L×B^2) as previously described (Euhus et al., 1986, J Surg Oncol 31:229-34). The size of tumors formed by NCCIT and NCCIT (pSuicide) cells was compared by analysis of variation (ANOVA), setting as 1 the volume on the day ganciclovir was first delivered.

[5] = system: NCCIT cells; assay: OCT4 immunofluorescence of RA-differentiated cells with ganciclovir
[6] = system: NCCIT (pSuicide) cells; assay: Western blotting of OCT4A after RA-induced differentiation and ganciclovir; assay type: cell-based, human; details: RA-induced NCCIT (pSuicide) cells treated with ganciclovir
Description: as §1
(§4) Cells were lysed in RIPA buffer with protease inhibitors (0.5 mmol/L PMSF and 1×Complete Protease Inhibitor Cocktail from Roche) for SDS-PAGE and Western blotting analyses. Monoclonal anti-β-actin antibody was from Sigma and used at 1:5000 (St Louis, Mo.). Rabbit anti-HSV thymidine kinase antiserum was obtained from Dr. William Summers of Yale University (1:5000); anti-OCT4A antibody was from Santa Cruz Biotechnology (Santa Cruz, Calif.) and used at 1:1000. Horseradish peroxidase (HRP)-conjugated secondary antibodies (1:1000) were purchased from Pierce (Rockford, Ill.). Chemiluminescent reagents from Pierce were used to visualize the protein signals on an LAS-3000 imaging system (Fujifilm). The Integrated Density function (Image J software) was used to quantify the expression of individual proteins after normalized by β-actin.

[7] = system: NCCIT cells; assay: as above; assay type: cell-based, human; details: ganciclovir added to RA-induced NCCIT cells
Description: as §1, §4

[8] = system: NCCIT (pSuicide) cells; assay: Cell survival under ganciclovir treatment; assay type: cell-based, human
Description: (§5) NCCIT and HeLa cells with and without pSuicide episomal DNA were treated with and without 2 μmol/L ganciclovir. Cell numbers and morphology were compared 7 days after treatment.

[9] = system: HeLa (pSuicide) cells; assay: Cell survival under ganciclovir treatment; assay type: cell-based
Description: as §5

[10] = system: tumors from NCCIT (pSuicide) cells; assay: In vivo ganciclovir treatment of tumors; set-up: species or system SCID mice
Description: as §3, with “Trypsinized cells washed in PBS were resuspended in ice-cold PBS containing 30% BD Matrigel (BD Biosciences), drawn into an ice-cold 1-mL syringe, and kept on ice for subcutaneous injection into 8-˜12-week-old female immunodeficient SCID mice (Charles River Laboratories, Wilmington, Mass.) as previously described (Prokhorova et al., 2009, Stem Cells Dev 2009; 18:47-54). For undifferentiated NCCIT and NCCIT (pSuicide) cells, 1.5×10^6 cells in 100 μl volume were injected for each mouse. For differentiated NCCIT (pSuicide) cells, 3×10^6 cells were injected. When” for “When”

[11] = system: tumors from NCCIT cells; assay: In vivo ganciclovir treatment of tumors; set-up: species or system SCID mice
Description: as §3, with “Trypsinized cells washed in PBS were resuspended in ice-cold PBS containing 30% BD Matrigel (BD Biosciences), drawn into an ice-cold 1-mL syringe, and kept on ice for subcutaneous injection into 8-˜12-week-old female immunodeficient SCID mice (Charles River Laboratories, Wilmington, Mass.) as previously described (Prokhorova et al., 2009, Stem Cells Dev 2009; 18:47-54). For undifferentiated NCCIT and NCCIT (pSuicide) cells, 1.5×10^6 cells in 100 μl volume were injected for each mouse. For differentiated NCCIT (pSuicide) cells, 3×10^6 cells were injected. When” for “When”

[12] = 3 × 10^6 cells/mouse, SCID mice
[13] = 2 μmol/L ganciclovir for 7 days

## CC1=C(/C=C/C(C)=C/C=C/C(C)=C/C(=O)O)C(C)(C)CCC1 [RA, retinoic acid]
[1]; 20 μmol/L retinoic acid, NCCIT (pSuicide) cells
  cells induced to differentiate (OCT4A-negative): about 50%
[2]; RA-treated NCCIT (pSuicide) cells before ganciclovir treatment
  percentage of OCT4A-positive cells: 59.10%±0.5%
[2]; after RA induction, NCCIT (pSuicide) cells
  OCT4A-positive cells: 40-60%
[3]; after RA induction, NCCIT cells
  OCT4A-positive cells: 40-60%
[4]; [12]
  No. mice with tumor 0-3 Months postinjection: 6
  No. mice with tumor 3-5 Months postinjection: 1
  No. mice with tumor Total: 7
[5]; 20 μmol/L retinoic acid
  cells induced to differentiate (OCT4A-negative): about 50%

## Nc1nc(O)c2ncn(COC(CO)CO)c2n1 [ganciclovir]
[1]; 2 μmol/L ganciclovir for 7 days after 10 days RA, NCCIT (pSuicide) cells
  elimination of OCT4A-positive cells: eliminated
[1]; 1670 immunostained ganciclovir-treated NCCIT (pSuicide) cells examined
  cells with nuclear staining of OCT4A antibody: none
[6]
  OCT4A expression: undetectable
[7]
  OCT4A expression: did not reduce
[2]; RA-treated NCCIT (pSuicide) cells after ganciclovir treatment
  percentage of OCT4A-positive cells: 2.27%±0.12%
[3]; RA-treated NCCIT cells after ganciclovir treatment
  percentage of OCT4A-positive cells: 30.18%±2.46%
[8]; [13]
  cell killing: killed
[8]; ganciclovir treatment
  proliferation: affected
[9]; [13]
  cell killing: not
[9]; ganciclovir treatment
  proliferation: not affected and not
[4]; cells treated with ganciclovir for 14 days before injection, 3 months after injection
  mice that developed tumors of mice injected with ganciclovir-treated cells: 1 of 12 and 1/14
[10]; NCCIT(pSuicide)-derived tumors, ganciclovir 50 mg/kg intraperitoneally daily
  Tumors responded to ganciclovir: 4/4
[10]; tumors from NCCIT (pSuicide) cells, ganciclovir 50 mg/kg i.p. daily for two weeks
  tumor growth: stopped growing; also recorded: inhibited growth
[10]; two mice with tumors from differentiated NCCIT (pSuicide) cells treated with ganciclovir
  tumor growth: inhibited
[11]; NCCIT-derived tumors, ganciclovir 50 mg/kg intraperitoneally daily
  Tumors responded to ganciclovir: 0/7
[11]; tumors from NCCIT cells, ganciclovir 50 mg/kg i.p. daily for two weeks
  tumor growth: continued to grow and not
[5]; 2 μmol/L ganciclovir for 7 days after 10 days RA
  elimination of OCT4A-positive cells: did not eliminate
